The record followed here is DBAASP.

Common to all, as to test: ≥ marks a high value that may be exact or a test limit, other limits are often not marked, values filed in µg/mL are converted to µM
The subject of experiment [1] is Mycobacterium tuberculosis CAS3.
Experiment [2] deals with Mycobacterium tuberculosis H37Rv.
Experiment [3] concerns Mycobacterium tuberculosis WXY.
In experiment [4] the test system is Bacillus subtilis 168.
The test system of experiment [5] is Candida albicans ATCC 10231.
Experiment [6] relates to Candida glabrata ATCC 2001.
Experiment [7] has as its system Candida tropicalis ATCC 13803.
Experiment [8] has as its system Escherichia coli ATCC 25922.
Experiment [9] concerns Klebsiella pneumoniae ATCC 13883.
In experiment [10] the test system is Pseudomonas aeruginosa PAO1.
For experiment [11], the system named is Staphylococcus aureus MU50.
Experiment [12] has as its system Staphylococcus aureus Newman.
The test system of experiment [13] is Staphylococcus aureus UAMS-1.
Experiment [14] deals with Staphylococcus aureus USA 200.
For experiment [15], the system named is Staphylococcus aureus USA 400.
Experiment [16] relates to Staphylococcus epidermidis 1457.
Experiment [17] relates to Escherichia coli BW25113.
In experiment [18] the test system is Escherichia coli J2210.
For experiment [19], the system named is Escherichia coli JJ2489.
For experiment [20], the system named is Escherichia coli JW0013.
Experiment [21] deals with Escherichia coli JW0368 ΔsbmA.
The test system of experiment [22] is Escherichia coli JW2778 ΔygdD.
Experiment [23] concerns Escherichia coli MC1041.
For experiment [24], the system named is Salmonella enterica subsp. enterica serovar Enteritidis MH91989.
Experiment [25] deals with Salmonella typhimurium SL1344.
Experiment [26] concerns Pseudomonas aeruginosa ATCC 27853.
Experiment [27] has as its system Pseudomonas aeruginosa.
Experiment [28] has as its system Staphylococcus aureus ATCC 29213.
Experiment [29] relates to Staphylococcus pseudintermedius.
Experiment [30] relates to Candida albicans ATCC 90029.
The test system of experiment [31] is Candida albicans.
Experiment [32] concerns Escherichia coli.
Experiment [33] relates to Staphylococcus aureus.
For experiment [34], the system named is Acinetobacter baumannii.
Experiment [35] concerns Escherichia coli K88.
For experiment [36], the system named is Escherichia coli K99.
Experiment [37] has as its system Escherichia coli UB1005.
The subject of experiment [38] is Klebsiella pneumoniae.
In experiment [39] the test system is Pseudomonas aeruginosa CICC 21625.
Experiment [40] concerns Pseudomonas aeruginosa CICC 21630.
Experiment [41] deals with Salmonella enterica subsp. enterica serovar Pullorum C79-13.
Experiment [42] relates to Salmonella enterica subsp. enterica serovar Typhimurium ATCC 14028.
In experiment [43] the test system is Salmonella enterica subsp. enterica serovar Typhimurium C77-31.

≈ marks a conversion by molar mass, not a printed value.

With `CC(C)C[C@H](NC(=O)[C@H](C)NC(=O)[C@H](C)NC(=O)[C@H](CCCN=C(N)N)NC(=O)[C@H](CO)NC(=O)[C@H](CC(C)C)NC(=O)[C@H](CCCCN)NC(=O)[C@H](CCCCN)NC(=O)[C@H](CCCCN)NC(=O)[C@H](C)N)C(=O)N[C@@H](CCCN=C(N)N)C(=O)N[C@@H](C)C(=O)N[C@@H](C)C(=O)N[C@H](C(=O)N[C@@H](CCCCN)C(=O)O)C(C)C` [AKKKLSRAALRAAVK], the MIC in experiment [1], in experiment [2] and in experiment [3] was no less than 93.1 µM each time.

`CC[C@H](C)[C@H](NC(=O)[C@H](CCCCN)NC(=O)CNC(=O)[C@H](CC(C)C)NC(=O)[C@@H](NC(=O)[C@H](CO)NC(=O)[C@H](CCCCN)NC(=O)[C@H](CC(C)C)NC(=O)[C@H](Cc1ccccc1)NC(=O)[C@@H]1CCCN1C(=O)[C@H](CC(C)C)NC(=O)[C@@H](N)Cc1ccccc1)[C@@H](C)CC)C(=O)N[C@@H](CC(C)C)C(N)=O` [FLPFLKSILGKIL]: the MIC in [4] was 17.7 µM (≈ 26.3 µg/mL); in [5], 12.5 µM (≈ 18.6 µg/mL); in experiment [6] it was 12.5 µM (≈ 18.6 µg/mL); in experiment [7], 1.6 µM (≈ 2.38 µg/mL); in experiment [8], greater than 50 µM; in [9], no less than 50 µM. Further, the minimal inhibitory concentration (MIC) was greater than 50 µM in experiment [10]; 3.1 µM (≈ 4.61 µg/mL) in [11]; 1.6 µM (≈ 2.38 µg/mL) in experiment [12]; 25 µM (≈ 37.2 µg/mL) in experiment [13]; 3.1 µM (≈ 4.61 µg/mL) in experiment [14]; 1.56 µM (≈ 2.32 µg/mL) in experiment [15]. This molecule also returned an MIC in experiment [16] of 1.6 µM (≈ 2.38 µg/mL).

In the case of `CC(C)C[C@H](NC(=O)[C@H](CCCN=C(N)N)NC(=O)[C@@H]1CCCN1C(=O)[C@H](CCCN=C(N)N)NC(=O)[C@@H]1CCCN1C(=O)[C@@H]1CCCN1C(=O)[C@H](CCCN=C(N)N)NC(=O)[C@@H]1CCCN1C(=O)[C@H](CCC(N)=O)NC(=O)[C@@H]1CCCN1C(=O)[C@H](CCCN=C(N)N)NC(=O)[C@H](Cc1ccc(O)cc1)NC(=O)[C@@H](NC(=O)[C@@H]1CCCN1C(=O)[C@H](CCCN=C(N)N)NC(=O)[C@H](CC(N)=O)NC(=O)[C@H](CC(N)=O)NC(=O)CN)C(C)C)C(=O)O` [GNNRPVYRPQPRPPRPRL], the MIC worked out at 0.062 µM (≈ 0.135 µg/mL) in experiment [17]; 0.126 µM (≈ 0.273 µg/mL) in [18]; 0.126 µM (≈ 0.273 µg/mL) in experiment [19]; 0.048 µM (≈ 0.104 µg/mL) in experiment [20]; 0.096 µM (≈ 0.208 µg/mL) in experiment [21]; 0.126 µM (≈ 0.273 µg/mL) in experiment [22]. The MIC in [23] stood at 0.096 µM (≈ 0.208 µg/mL); in [24], 0.067 µM (≈ 0.145 µg/mL); in [25], 0.126 µM (≈ 0.273 µg/mL).

With `CC[C@H](C)[C@H](NC(=O)[C@@H]1CCCN1C(C)=O)C(=O)N[C@@H](Cc1cnc[nH]1)C(=O)N[C@@H](CCCN=C(N)N)C(=O)N[C@@H](CCCN=C(N)N)C(=O)N[C@H](C(=O)N1CCC[C@H]1C(=O)N1CCC[C@H]1C(=O)N[C@@H](CCCN=C(N)N)C(=O)N[C@@H](Cc1c[nH]c2ccccc12)C(=O)N1CCC[C@H]1C(=O)N[C@@H](CCCN=C(N)N)C(=O)N[C@@H](CC(C)C)C(=O)N[C@@H](CCCCN)C(=O)N[C@@H](CCCN=C(N)N)C(=O)N[C@@H](CCCN=C(N)N)C(=O)N[C@@H](Cc1c[nH]c2ccccc12)C(N)=O)[C@@H](C)CC` [PIHRRIPPRWPRLKRRW], the MIC in experiment [26] was determined as 27.6 µM (≈ 65.1 µg/mL); in experiment [27], 55.2 µM (≈ 130 µg/mL); in [28], 27.6 µM (≈ 65.1 µg/mL); in experiment [29], 27.6 µM (≈ 65.1 µg/mL).

Consider `CC(C)C[C@H](NC(=O)[C@H](Cc1cnc[nH]1)NC(=O)[C@H](CO)NC(=O)[C@H](C)NC(=O)[C@H](CC(C)C)NC(=O)[C@@H](NC(=O)[C@@H](NC(=O)[C@H](CC(C)C)NC(=O)[C@H](CC(C)C)NC(=O)[C@H](CO)NC(=O)[C@H](Cc1cnc[nH]1)NC(=O)[C@H](CO)NC(=O)[C@H](CC(C)C)NC(=O)[C@H](CC(C)C)NC(=O)[C@H](CCCCN)NC(=O)[C@H](Cc1ccccc1)NC(=O)[C@H](CCCN=C(N)N)NC(=O)[C@@H](N)CCCN=C(N)N)C(C)C)[C@@H](C)O)C(=O)O` [RRFKLLSHSLLVTLASHL], for which the MIC in experiment [30] amounted to 5.98 µM (≈ 12.5 µg/mL); in [31] it was 2.99 µM (≈ 6.25 µg/mL); in experiment [8] it was 1.49 µM (≈ 3.12 µg/mL); in [32] it was 1.49 µM (≈ 3.12 µg/mL); in experiment [27] it was 2.99 µM (≈ 6.25 µg/mL); in experiment [28], 2.99 µM (≈ 6.25 µg/mL). Besides, the MIC in experiment [33] turned out to be 1.49 µM (≈ 3.12 µg/mL).

On to `CC(C)[C@H](N)C(=O)N[C@@H](CCCCN)C(=O)N1CCC[C@H]1C(=O)N[C@H](C(=O)N[C@H](C(=O)N[C@@H](CCCCN)C(=O)N1CCC[C@H]1C(=O)N[C@H](C(=O)N[C@H](C(=O)N[C@@H](CCCCN)C(=O)N1CCC[C@H]1C(=O)N[C@H](C(=O)N[C@H](C(=O)N[C@@H](CCCCN)C(=O)N1CCC[C@H]1C(=O)N[C@H](C(=O)N[C@H](C(=O)N[C@@H](CCCCN)C(=O)N1CCC[C@H]1C(=O)N[C@H](C(=O)N[C@H](C(=O)N[C@@H](CCCCN)C(=O)N1CCC[C@H]1C(=O)N[C@H](C(=O)N[C@H](C(=O)N[C@@H](CCCCN)C(=O)N1CCC[C@H]1C(=O)N[C@H](C(N)=O)C(C)C)C(C)C)C(C)C)C(C)C)C(C)C)C(C)C)C(C)C)C(C)C)C(C)C)C(C)C)C(C)C)C(C)C)C(C)C` [VKPVVKPVVKPVVKPVVKPVVKPVVKPV], for which the MIC in [34] is no less than 64 µM; in experiment [8], greater than 64 µM; in [35] it was no less than 64 µM; in experiment [36] it was no less than 64 µM; in [37], no less than 64 µM; in [32] it was greater than 64 µM. Besides, the MIC in experiment [38] was greater than 64 µM; in [26], greater than 64 µM; in [39], no less than 64 µM; in [40], no less than 64 µM; in [10], greater than 64 µM; in experiment [27], greater than 64 µM. In addition, the MIC is no less than 64 µM in experiment [41], greater than 64 µM in experiment [42] and no less than 64 µM in experiment [43].

As a reminder, the MIC is the lowest concentration that inhibits growth of the organism. High values mean a less susceptible organism, low ones a more susceptible organism.
